Experimental findings from patent publication US7888504B2, “Glucokinase activators and methods of using same” (Bristol-Myers Squibb Company, priority 2006, dated 2011) are described below.

In the first assay the target is T1, Human Glucokinase (Homo sapiens, UniProt P35557).
T1 construct: Full-length human hepatic GK (untagged); made in house; host or cells: E. coli BL21 STAR (DE3)pLysS
T1 sequence (P35557 1-466 isoform P35557-2): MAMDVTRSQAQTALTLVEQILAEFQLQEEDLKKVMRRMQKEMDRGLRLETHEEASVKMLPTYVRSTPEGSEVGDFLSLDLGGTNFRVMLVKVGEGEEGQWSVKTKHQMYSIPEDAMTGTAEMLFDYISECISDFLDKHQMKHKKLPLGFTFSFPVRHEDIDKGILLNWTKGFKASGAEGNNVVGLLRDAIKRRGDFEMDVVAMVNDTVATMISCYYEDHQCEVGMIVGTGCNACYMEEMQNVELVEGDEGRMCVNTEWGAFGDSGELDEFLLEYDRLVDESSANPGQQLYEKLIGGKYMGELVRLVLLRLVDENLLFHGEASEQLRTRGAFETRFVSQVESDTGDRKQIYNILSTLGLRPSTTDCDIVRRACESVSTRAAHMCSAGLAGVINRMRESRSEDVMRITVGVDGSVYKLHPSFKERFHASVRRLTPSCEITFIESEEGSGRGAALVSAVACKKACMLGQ
The assay can be described thus: tandem Glucokinase activation assay (uncoupled). The assay is classed as biochemical. The settings on record: 12 mM glucose; human full-length GK 15 nM. As for the experimental part:
A tandem Glucokinase activation assay (uncoupled) was used to assess the activity of glucokinase (GK) in the presence of GK activator compounds. The below-described tandem assay protocol was followed using a range of activator compound concentrations from 0 to 100 µM at 5 and 12 mM concentrations of glucose. Human full-length GK (15 nM) was incubated with 5 or 12 mM glucose in 384 well black microtiter plates with a clear bottom. To initiate the GK reaction, magnesium-ATP (3 mM final concentration) was added to the protein in buffer, under the final buffer conditions of 25 mM HEPES buffer, pH 7.1, containing 1 mM DTT (dithiothreitol) and […]. The total reaction volume was 20 μL. The reaction was allowed to proceed for ten minutes and was then quenched with 5 μL EDTA (ethylenediamine tetra-acetic acid; 45 mM final). The components of the detection reaction, ThioNAD (thio-nicotinamide adenine dinucleotide) and G6PDH (glucose-6-phosphate dehydrogenase) (final concentrations of 650 μM and 3.33 Units, respectively), were then added together in a volume of 25 μL, and a total volume of 50 μL. Absorbance was read and activation calculated as a percentage of background activity, ie., GK in the presence of DMSO, with background glucose-6-phosphate subtracted. Absorbance measurements were made at 405 nm on a Spectramax Plus 384 absorbance plate reader (Molecular Devices). Background glucose-6-phosphate was determined by pre-quenching GK with EDTA prior to reaction initiation with ATP.
Expression and Purification of Human GK
Full-length human hepatic GK (untagged) as expressed in BL21 STAR (DE3)pLysS cells (Invitrogen) at 25° C. as described by Mookhtiar et al.^1 The protein was purified essentially as described by Lange^2 with a slight modification. Cell pellets were lysed via three rounds of freezing and thawing, centrifuged at 15000 g for clarification, and precipitated with 40-65% (NH4)2SO4. The resulting pellet was re-suspended in buffer dialyzed, and applied directly to a Q-Sepharose (Sigma) column followed by elution with a linear 100-600 mM KCl gradient. GK containing fractions were pooled, dialyzed overnight vs. 25 mM HEPES pH 7.2/1 mM MgCl2/1 mM EDTA/0.1 M KCl/1 mM DTT, then dialyzed again with the same buffer with 10% glycerol added. ^1Mookhtiar, K. A., Kalinowski, S. S., Brown, K. S., Tsay, Y. H., Smith-Monroy, C., and Robinson, G. W. (1996) “Heterologous expression and characterization of rat liver glucokinase regulatory protein”, Diabetes 45:1670-1677.^2Lange, A. J., Xu, L. Z., Van Poelwijk, F., Lin, K., Granner, D. K., and Pilkis, S. J. (1991) “Expression and site-directed mutagenesis of hepatic glucokinase”, Biochem. J., 277:159-163.
For `CS(=O)(=O)c1ccc([C@@H](CC2CCCC2)C(=O)Nc2ncc(Oc3cncc(C(=O)O)c3)s2)cc1` [Example 8], the EC50 was found to be 753 nM.

With `O=C(Nc1ncc(Oc2cccc(C(=O)N3CCC3)c2)s1)[C@H](CC1CCOCC1)c1ccc(S(=O)(=O)C2CC2)cc1` [Example 18], the EC50 came out at 39 nM.

In turn, `O=C(Nc1ncc(Oc2cccc(C(=O)N3CC(O)C3)c2)s1)[C@H](CC1CCOCC1)c1ccc(S(=O)(=O)C2CC2)cc1` [Example 19] yielded an EC50 of 38 nM. The compound `CS(=O)(=O)c1ccc([C@@H](CC2CCCC2)C(=O)Nc2ncc(Oc3ccc(C#N)cc3)s2)cc1` [Example 20] registered an EC50 of 8700 nM. Compound `CS(=O)(=O)c1ccc([C@@H](CC2CCCC2)C(=O)Nc2ncc(Oc3cccc(C(N)=O)c3)s2)cc1` [Example 21] yielded an EC50 of 858 nM. The same measure, in the same setting: with `CS(=O)(=O)c1ccc([C@@H](CC2CCCC2)C(=O)Nc2ncc(Oc3ccccc3C(N)=O)s2)cc1` [Example 24] the figure was 3960 nM.

The next assay has as its system DIO mice. The assay can be described thus: Oral glucose tolerance test (OGTT) in DIO mice. The settings on record: male DIO C57BL/6J mice, 60 mg/kg oral, given 60 min before 2 g/kg glucose, ΔAUC 0-120 min. The assay is classed as in vivo. The method, then: In Vivo Studies: Oral Glucose Tolerance Test (OGTT)
Oral glucose tolerance tests were carried out on male DIO (diet-induced obese C57BL/6J mice fed a high fat diet (60% kcal from fat) for 26 weeks prior to experimentation. Mice were fasted overnight before use for experiments. A test compound or vehicle (10% dimethyl acetamide+10% ethanol+10% Cremophore+70% water) was given orally 60 min before oral administration of a glucose solution at a dose of 2 g/kg body weight (oral glucose tolerance test; OGTT). Blood glucose levels were measured from tail-bled samples taken at different time points before and after administration of glucose (time course of 2 hours). A time curve of the blood glucose was generated and the change from baseline area-under-the curve (ΔAUC) from 0-120 min was calculated (the time glucose administration being time zero).
Take `CS(=O)(=O)c1ccc([C@@H](CC2CCCC2)C(=O)Nc2ncc(Oc3ccc(C(=O)O)cc3)s2)cc1` [Example 9]: the “reduction of glucose AUC levels in an OGTT” value was 37%.

For orientation: EC50 means the midpoint of the concentration-response curve.
